Results as given in patent EP0966414B1, “TRIARYLMETHYL FREE RADICALS AS IMAGE ENHANCING AGENTS” (Amersham Health AS, priority 1997, dated 1998).

Assay: ESR spectrum linewidth in aqueous solution
Assay type: physicochemical
Details: 100 G, singlet
Description: For the method according to the invention the preferred radicals are those which have relatively few transitions, e.g. less than 15, preferably less than 10, in their ESR spectra and radicals having narrow linewidth ESR transitions, e.g. up to 500 mG, preferably less than 150 mG, especially less than 60 mG and particularly less than 25mG, are especially preferred. (The linewidths referred to are conveniently the intrinsic linewidths (full width at half maximum in the absorption spectrum) under ambient conditions).

Substance | ESR linewidth (1.0 mM in H2O) [mg] | ESR linewidth (2.5 mM aqueous solution) [mg]
Tris (8-carboxyl-2,2,6,6-tetra (2-(1-hydroxy-2.2-d2-ethyl))-benzo[1,2-d:4,5-d']bis(1,3)dithiole -4-yl)methyl sodium salt [Example 21] | 70 | 
Tris (8-carboxymethylthio-2,2,6,6-(2-(1-hydroxyethyl)) benzo[1,2-d:4,5-d']bis(1,3)dithiole-4-yl)methyl sodium salt [Example 9] |  | 195
Tris(8-[N,N-bis(2,3-dihydroxypropyl)aminocarbonylmethylthiol-2,2,6,6-tetra-(2-(1-hydroxyethyl))benzo[1,2-d:4,5-d'] bis(1,3)dithiole-4-yl)methyl [Example 11] | 274 | 
Tris(8-carboxy-2,2,6,6-tetra-(hydroxyethyl)benzo[1,2-d:4,5-d']bis(1,3)dithiole-4-yl)methyl sodium salt [Example 7] | 160 | 
Tris(8-carboxyl-2,2,6,6-tetra(hydroxyethyl)-benzo[1,2-d:4,5-d']bis(1,3)dithiole-4-yl)methyl N,N-bis(1,2-dihydroxyprop-3-yl)-acetamid-2-yl-ester [Example 23] | 226 | 
